Measured values from patent US20120129872A1, “FUSED HETEROARYL INHIBITORS OF PRO-MATRIX METALLOPROTEINASE ACTIVATION” (priority 2010, published 2012).
Where a name gives a salt, the structure may show the parent alone.

Tests used:
[1] = molecular target: T1, proMMP9(20-445;ΔFnII) (SEQ ID NO:6) (Homo sapiens, UniProt P14780, DEL216-390); assay: ThermoFluor binding assay with proMMP9(20-445;ΔFnII)
T1 construct: start methionine (N); made in house; host or cells: E. coli BL21(DE3) RIL
T1 sequence (P14780 with tags, fused parts or gaps DEL216-390): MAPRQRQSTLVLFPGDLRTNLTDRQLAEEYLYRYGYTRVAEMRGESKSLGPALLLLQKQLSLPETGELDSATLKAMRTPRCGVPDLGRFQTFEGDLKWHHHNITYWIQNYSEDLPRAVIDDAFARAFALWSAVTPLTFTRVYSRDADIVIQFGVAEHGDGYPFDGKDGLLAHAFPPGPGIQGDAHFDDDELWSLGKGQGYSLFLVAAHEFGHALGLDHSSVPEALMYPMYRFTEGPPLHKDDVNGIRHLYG
Procedure: (§1) The ThermoFluor® (TF) assay is a 384-well plate-based binding assay that measures thermal stability of proteins (Biomol Screen 2001, 6, 429-40; Biochemistry 2005, 44, 5258-66). The experiments were carried out using instruments available from Johnson & Johnson Pharmaceutical Research & Development, LLC. TF dye used in all experiments was […] (1,8-ANS) (Invitrogen: A-47).
(§2) Compounds were arranged in a pre-dispensed plate (Greiner Bio-one: 781280), wherein compounds were serially diluted in 100% DMSO across 11 columns within a series. Columns 12 and 24 were used as DMSO reference and contained no compound. For multiple compound concentration-response experiments, the compound aliquots ([…]) were robotically predispensed directly into black 384-well polypropylene PCR microplates (Abgene: TF-0384/k) using a Cartesian Hummingbird liquid handler (DigiLab, Holliston, Mass.). Following compound dispense, protein and dye solutions were added to achieve the final assay volume of 3 μL. The assay solutions were overlayed with 1 μL of silicone oil (Fluka, type DC 200: 85411) to prevent evaporation.
(§3) Assay plates were robotically loaded onto a thermostatically controlled PCR-type thermal block and then heated from 40 to 90° C. at a ramp-rate of 1° C./min for all experiments. Fluorescence was measured by continuous illumination with UV light (Hamamatsu LC6) supplied via fiber optics and filtered through a band-pass filter (380-400 nm; >60D cutoff). Fluorescence emission of the entire 384-well plate was detected by measuring light intensity using a CCD camera (Sensys, Roper Scientific) filtered to detect 500±25 nm, resulting in simultaneous and independent readings of all 384 wells. A single image with 20-sec exposure time was collected at each temperature, and the sum of the pixel intensity in a given area of the assay plate was recorded vs temperature and fit to standard equations to yield the Tm (J Biomol Screen 2001, 6, 429-40).
(§4) Thermodynamic parameters necessary for fitting compound binding for each proMMP were estimated by differential scanning calorimetry (DSC) and from ThermoFluor® data. The heat capacity of unfolding for each protein was estimated from the molecular weight and from ThermoFluor® dosing data.
ThermoFluor® with proMMP9(20-445;ΔFnII (SEQ ID NO:6)
The protein sample preparations included a desalting buffer exchange step via a PD-10 gravity column (GE Healthcare). The desalting buffer exchange was performed prior to diluting the protein to the final assay concentration of 2.8 μM proMMP9(20-445;ΔFnII) (SEQ ID NO:6). The concentration of proMMP9(20-445;ΔFnII) (SEQ ID NO:6) was determined spectrophotometrically based on a calculated extinction coefficient of ε280=39880 M^−1 cm^−1, a calculated molecular weight of 28.2 kDa, and calculated pI of 5.5. ThermoFluor® reference conditions were define as follows: 80 μg/mL (2.8 μM) proMMP9(20-445;ΔFnII) (SEQ ID NO:6), 50 μM 1,8-ANS, pH 7.0 Buffer (50 mM HEPES pH 7.0, 100 mM NaCl, 0.001% Tween-20, 2.5 mM MgCl2, 300 μM CaCl2). The thermodynamic parameters for proMMP9(20-445;ΔFnII) (SEQ ID NO:6) are as follows: Tm (° C.)=72 (+/−0.1), ΔUH(Tm) (cal mol^−1)=160000(+/−5000), ΔUS(Tm) (cal mol^−1 K^−1)=434, ΔUCp (cal mol^−1 K^−1)=2400.

[2] = molecular target: T2, full-length proMMP9(1-707) (SEQ ID NO:1), activation by catalytic MMP3 (Homo sapiens, UniProt P14780, R574P); assay: proMMP9/MMP3 P126 Activation Assay; format: biochemical
T2 construct: made in house; host or cells: HEK293 (transient, secreted)
T2 sequence (P14780 20-707 R574P): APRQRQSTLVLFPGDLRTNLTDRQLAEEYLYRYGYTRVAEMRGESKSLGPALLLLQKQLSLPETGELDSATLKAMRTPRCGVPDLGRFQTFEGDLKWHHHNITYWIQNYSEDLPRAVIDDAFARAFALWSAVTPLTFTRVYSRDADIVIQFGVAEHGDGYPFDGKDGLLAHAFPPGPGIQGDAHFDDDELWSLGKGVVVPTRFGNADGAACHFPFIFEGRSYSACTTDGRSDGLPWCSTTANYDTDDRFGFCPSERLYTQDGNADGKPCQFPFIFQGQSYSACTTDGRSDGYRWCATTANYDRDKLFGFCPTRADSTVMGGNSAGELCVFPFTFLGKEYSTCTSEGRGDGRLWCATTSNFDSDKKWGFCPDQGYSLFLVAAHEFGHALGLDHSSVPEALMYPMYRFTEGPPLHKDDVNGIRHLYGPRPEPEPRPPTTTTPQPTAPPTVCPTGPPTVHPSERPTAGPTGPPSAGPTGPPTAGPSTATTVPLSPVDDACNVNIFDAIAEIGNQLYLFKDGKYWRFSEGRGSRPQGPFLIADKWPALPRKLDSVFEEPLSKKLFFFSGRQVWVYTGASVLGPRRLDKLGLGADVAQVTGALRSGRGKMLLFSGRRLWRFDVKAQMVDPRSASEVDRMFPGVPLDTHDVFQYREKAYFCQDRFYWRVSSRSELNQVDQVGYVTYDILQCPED
Procedure: proMMP9/MMP3 P126 Activation Assay
The reaction volume was 50 μL. […] Reactivity of residual MMP3 towards P-126 substrate was minimal under these conditions.

[3] = molecular target: T3, proMMP9(67-444;ΔFnII) (SEQ ID NO:5) (Homo sapiens, UniProt P14780, DEL216-390); assay: ThermoFluor binding assay with proMMP9(67-444;ΔFnII)
T3 construct: start methionine (N); made in house; host or cells: E. coli BL21(DE3) RIL
T3 sequence (P14780 with tags, fused parts or gaps DEL216-390): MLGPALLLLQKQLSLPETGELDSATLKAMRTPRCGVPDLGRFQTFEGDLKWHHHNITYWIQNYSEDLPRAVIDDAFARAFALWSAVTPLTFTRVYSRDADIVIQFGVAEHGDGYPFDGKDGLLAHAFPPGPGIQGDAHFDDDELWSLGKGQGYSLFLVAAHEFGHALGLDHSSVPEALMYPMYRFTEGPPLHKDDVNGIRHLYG
Procedure: as §1, §2, §3, §4
ThermoFluor® with proMMP9(67-444;ΔFnII (SEQ ID NO:5)
The protein sample preparations had to include a desalting buffer exchange step via a PD-10 gravity column (GE Healthcare). The desalting buffer exchange was performed prior to diluting the protein to the final assay concentration of 3.5 μM proMMP9(67-444;ΔFnII) (SEQ ID NO:5). The concentration of proMMP9(67-444;ΔFnII) (SEQ ID NO:5) was determined spectrophotometrically based on a calculated extinction coefficient of ε280=33900 M^−1 cm^−1, a calculated molecular weight of 22.6 kDa, and calculated pI of 5.20. ThermoFluor® reference conditions were defined as follows: 80 μg/mL (3.5 μM) proMMP9(67-444;ΔFnII) (SEQ ID NO:5), 50 μM 1,8-ANS, pH 7.0 Buffer (50 mM HEPES pH 7.0, 100 mM NaCl, 0.001% Tween-20, 2.5 mM MgCl2, 300 μM CaCl2). The thermodynamic parameters for proMMP9(67-444;ΔFnII) (SEQ ID NO:5) are as follows: Tm (° C.)=63 (+/−0.1), ΔUH(Tm) (cal mol^−1)=105000(+/−5000), ΔUS(Tm) (cal mol^−1 K^−1)=450, ΔuCp (cal mol^−1 K^−1)=2000.

| Kd [1] [nM] | IC50 [2] [nM] | Kd [3] [nM] | Compound |
| --- | --- | --- | --- |
| 360 | 180 | 1100 | Cc1nc2cc(-c3csc(Nc4cc(S(N)(=O)=O)ccc4OC(C)C)n3)ccc2n1C [Example 23, 3-[4-(1,2-Dimethyl-1H-benzoimidazol-5-yl)-thiazol-2-ylamino]-4-isopropoxy-benzenesulfonamide•TFA] |
| 170 | 240 | 480 | Cc1nc2ccc(-c3csc(Nc4cc(S(N)(=O)=O)ccc4OC(C)C)n3)cc2n1C [Example 22, 3-[4-(2,3-Dimethyl-3H-benzoimidazol-5-yl)-thiazol-2-ylamino]-4-isopropoxy-benzenesulfonamide•TFA] |
| 82 | 170 |  | CC(C)Oc1ccc(S(N)(=O)=O)cc1Nc1nc(-c2ccc3[nH]c(=O)[nH]c3c2)cs1 [Example 33] |
| 44 | 150 |  | CC(C)Oc1ccc(S(N)(=O)=O)cc1Nc1nc(-c2ccc3[nH]c(N)nc3c2)cs1 [Example 34, 3-((4-(2-Amino-1H-benzo[d]imidazol-5-yl)thiazol-2-yl)amino)-4-isopropoxybenzenesulfonamide•TFA] |
| 1700 | 2300 | 7500 | COc1cc(C)c(C(N)=O)cc1Nc1nc(-c2ccc3c(c2)ncn3C)cs1 [Example 1, 4-Methoxy-2-methyl-5-[4-(1-methyl-1H-benzoimidazol-5-yl)-thiazol-2-ylamino]-benzamide] |
| 52 | 200 |  | CC(C)Oc1ccc(S(N)(=O)=O)cc1Nc1nc(-c2ccc3c(c2)nc(CN(C)CCN(C)C)n3C)cs1 [Example 32, 3-((4-(2-(((2-(Dimethylamino)ethyl)(methyl)amino)methyl)-1-methyl-1H-benzo[d]imidazol-5-yl)thiazol-2-yl)amino)-4-isopropoxybenzenesulfonamide•TFA] |
| 212 | 300 | 850 | CCn1c(C)nc2cc(-c3csc(Nc4cc(S(N)(=O)=O)ccc4OC(C)C)n3)ccc21 [Example 17, 3-[4-(1-Ethyl-2-methyl-1H-benzoimidazol-5-yl)-thiazol-2-ylamino]-4-isopropoxy-benzenesulfonamide•HCl] |
| 320 | 850 | 990 | COc1ccc(C(N)=O)cc1Nc1nc(-c2ccc3c(c2)ncn3C)cs1 [Example 10, 4-Methoxy-3-[4-(1-methyl-1H-benzoimidazol-5-yl)-thiazol-2-ylamino]-benzamide] |
| 450 | 3600 | 1200 | CC(C)Oc1ccc(S(N)(=O)=O)cc1Nc1nc(-c2ccc3sccc3c2)cs1 [Example 20, 3-(4-Benzo[b]thiophen-5-yl-thiazol-2-ylamino)-4-isopropoxy-benzenesulfonamide•TFA] |
| 260 | 150 | 2000 | CC(C)Oc1ccc(S(N)(=O)=O)cc1Nc1nc(-c2ccc3c(c2)ncn3C)cs1 [Example 9, 4-Isopropoxy-3-[4-(1-methyl-1H-benzoimidazol-5-yl)-thiazol-2-ylamino]-benzenesulfonamide•HCl] |
| 270 | ~2000 | 6700 | Cn1ncc2cc(-c3csc(Nc4cc(C(N)=O)ccc4OC(F)(F)F)n3)ccc21 [Example 16, 3-[4-(1-Methyl-1H-indazol-5-yl)-thiazol-2-ylamino]-4-trifluoromethoxy-benzamide•TFA] |
| 67 | 350 | 670 | CC(C)Oc1ccc(C(N)=O)cc1Nc1nc(-c2ccc3c(cnn3C)c2)cs1 [Example 14, 4-Isopropoxy-3-[4-(1-methyl-1H-indazol-5-yl)-thiazol-2-ylamino]-benzamide•TFA] |
| 52 | 73 |  | CC(C)Oc1ccc(S(N)(=O)=O)cc1Nc1nc(-c2ccc3c(c2)nc(CN(C)C)n3C)cs1 [Example 31, 3-((4-(2-((Dimethylamino)methyl)-1-methyl-1H-benzo[d]imidazol-5-yl)thiazol-2-yl)amino)-4-isopropoxybenzenesulfonamide•TFA] |
| 87 | 82 |  | CC(C)Oc1ccc(S(N)(=O)=O)cc1Nc1nc(-c2ccc3c(c2)nc(CN2CCN(C)CC2)n3C)cs1 [Example 30] |
